# Experimental data reported in patent publication US7265118B2, “Regulation of substrate activity” (Point Therapeutics, Inc., priority 1998, dated 2007).
# Assay: Conformational equilibrium of cyclic and open chain forms in aqueous solution
# Format: physicochemical
# Conditions: at equilibrium at pH 7.0
# Excerpt: The open, active, inhibitory chain species is favored at low pH while the cyclized structure is favored at neutral pH. The reaction is fully reversible: the open chain becomes predominant at low pH. The open chain to cyclic species reaction involves a trans to cis isomerization of the proline and the formation of a new N—B bond. […] Cyclization liberates one equivalent of H+ thereby explaining the requirement for base in the cyclization reaction and acid in the opening reaction. […] G. Gutheil and W. W. Bachovchin, Separation of L-Pro-DL-boroPro into Its Component Diastereomers and Kinetic Analysis of Their Inhibition of Dipeptidyl Peptidase IV. A New Method for the Analysis of Slow, Tight-Binding Inhibition, Biochemistry 32, 8723-8731 (1993)).
row,SMILES,"fraction existing as the open chain, inhibitory species"
1,O=C(C1CCCN1)N1CCCC1B(O)O (centres unmarked) [Pro-boroPro],less than 1%
2,CC(C)C(N)C(=O)N1CCCC1B(O)O (centres unmarked) [Val-boroPro],less than 0.1%
